# Test system: human myeloma cell line MM.1S
# Assay: SILAC acetylated-lysine peptide profiling, HDAC inhibitor vs DMSO (light/heavy ratio)
# Assay type: cell-based
# Text: An embodiment of the invention comprises utilizing the SILAC method in order to quantitate changes in protein expression between two or more populations of cells. The SILAC method is a technique based on mass spectrometry that detects differences in protein abundance among samples using non-radioactive isotopic labeling. The SILAC method is known in the art, and described in detail in Ong et al., “Stable Isotope Labeling by Amino Acids in Cell Culture, SILAC, as a Simple and Accurate Approach to Expression Proteomics”, Molecular & Cellular Proteomics, vol. 1, pp. 376-386 (2002), which is incorporated herein by reference in its entirety.
# Briefly, the SILAC method involves growing two populations of cells in cell culture. The first population of cells is grown in growth media containing normal amino acids (“normal media”). The second population of cells is grown in media lacking a standard essential amino acid (such as lysine), but is then supplemented with a non-radioactive, isotopically labeled form of that essential amino acid (such as lysine labeled with ^13C atoms, rather than normal ^12C atoms), which is called “heavy media”. When the two populations of cells are each growing in the medium, they incorporate the amino acids into all of their proteins. The growth of cells maintained in the heavy media is no different from that in normal media. All peptides containing the heavy amino acids are heavier than their normal counterparts. The cells from each of the two populations of cells are lysed. The lysates from each of the two cell populations are then combined. The combined cell lysates are then analyzed by mass spectrometry. Pairs of chemically identical peptides of different stable isotope composition can be differentiated in a mass spectrometer due to their difference in mass. The ratio of peak intensities in the mass spectrum for such peptide pairs reflects the abundance ratio for the two proteins.
# This example describes SILAC studies that were performed to compare the effects of three different HDAC inhibitors (Compound A, Compound B, and tubastatin A) to a control on a human multiple myeloma cell line. The HDAC inhibitors were also compared amongst themselves to determine differences in their effects.
# A human myeloma cell line MM.1S was grown using either ^12C (light) or ^13C (heavy) lysine containing culture medium. The “heavy” cells were treated with DMSO as the control, and the “light” cells were treated with a single HDAC inhibitor at 37° C. for 6 hours. The heavy and light cells were lysed, and the lysates were mixed in 1:1 ratio and digested with the protease trypsin. The acetylated lysine containing peptides (due to the action of the HDAC inhibitor) in the digested peptide pool were captured by a non-specific anti-acetylated lysine antibody cocktail (the antibodies identify both light and heavy acetylated peptides), and subjected to mass spectrometry analysis in order to identify thousands of individual peptides.
# Thousands of peptides were identified in pairs (^12C and ^13C) due to their known mass differences. The amino acid sequence and quantitative ratio (Light/Heavy) of a given peptide in two differentially treated cell lysates were then determined and annotated with their possible protein (gene) sources.
# As stated above, three HDAC inhibitors (Compound A, Compound B, and Tubastatin A) were used. Thus, the SILAC method was performed three times, with a different HDAC inhibitor compared to a control each time. Accordingly, there are three pairs of quantitative data in the table below, i.e., Compound A:DMSO, Compound B:DMSO, and Tubastatin A:DMSO. A cut-off of 1.30 fold of change (increase or decrease) was then used to determine “changed” or “+” in the table, and any peptides with a fold of change less than 1.3 fold were determined to be “unchanged” or “0” in the table. Those peptides that were not identified were marked as “NA” in the table. […]
structure (smiles),measurement,setting,value
"O=C(NO)c1cnc(NC2(c3cccc(F)c3)CCCCC2)nc1 [Compound B, 2-((1-(3-fluorophenyl)cyclohexyl)amino)-N-hydroxypyrimidine-5-carboxamide]",light to heavy ratio (L/H ratio) of acetylated peptide TNFSNEK(ac)TISK (SEQ ID NO: 357),"Acylphosphatase-2 [113], ACYP2, drug:DMSO",0.84 log 2
same,"light to heavy ratio (L/H ratio), log 2 scale, acetylated peptide SELTGK(ac)FEK (SEQ ID NO: 778)","Annexin A5 [76], gene ANXA5, drug:DMSO",0.00
same,light to heavy ratio (L/H ratio) of acetylated peptide TKYEK(ac)SLYSMIK (SEQ ID NO: 270),"Annexin A6 [299], ANXA6, drug:DMSO",0.00 log 2
same,light to heavy ratio (L/H ratio) of acetylated peptide AINEAYK(ac)EDYHK (SEQ ID NO: 282),"Annexin A6 [478], ANXA6, drug:DMSO",0.00 log 2
same,light to heavy ratio (L/H ratio) of acetylated peptide NKPLFFADK(ac)LYK (SEQ ID NO: 298),"Annexin A6 [607], ANXA6, drug:DMSO",0.00 log 2
same,light to heavy ratio (L/H ratio) of acetylated peptide GAGTDEK(ac)TLTR (SEQ ID NO: 621),"Annexin A6 [620], gene ANXA6, inhibitor:DMSO",0.00 log 2
same,"light to heavy ratio (L/H ratio), log 2 scale, acetylated peptide EFIEK(ac)YDK (SEQ ID NO: 779)","Annexin A6 [644], gene ANXA6, drug:DMSO",0.00
same,light to heavy ratio (L/H ratio) of acetylated peptide DDNGK(ac)PYVLPSVR (SEQ ID NO: 579),"Aspartate aminotransferase mitochondrial [73], gene GOT2, inhibitor:DMSO",0.00 log 2
same,light to heavy ratio (L/H ratio) of acetylated peptide LVGELK(ac)LDR (SEQ ID NO: 367),"Bactericidal/permeability-increasing protein [237], BPI, drug:DMSO",−0.52 log 2
same,light to heavy ratio (L/H ratio) of acetylated peptide ELK(ac)EIQYGIR (SEQ ID NO: 540),"Branched-chain-amino-acid aminotransferase [337], gene BCAT2, inhibitor:DMSO",0.00 log 2
same,L/H ratio of acetylated peptide FYGDEEK(ac)[…] (SEQ ID NO: 25),"CALR [62], log 2 scale, drug vs DMSO",0.00
same,light to heavy ratio (L/H ratio) of acetylated peptide AGLQVYNK(ac)CWK (SEQ ID NO: 260),"CD59 glycoprotein [63], CD59, drug:DMSO",0.00 log 2
same,L/H ratio of acetylated peptide,"CHAFEK(ac)[…] (SEQ ID NO: 425), NADH dehydrogenase [ubiquinone] iron-sulfur protein 5 [38], NDUFS5",−0.63 log 2
same,L/H ratio of acetylated peptide […](ac)R (SEQ ID NO: 26),"CLTC [637], log 2 scale, drug vs DMSO",0.00
same,L/H ratio of acetylated peptide FK(ac)ESFAEMNR (SEQ ID NO: 1),"COX4I1 [87], log 2 scale, drug vs DMSO",−0.67
same,L/H ratio of acetylated peptide […](ac)QLCTIPR (SEQ ID NO: 27),"CREBBP [1216], log 2 scale, drug vs DMSO",0.00
same,L/H ratio of acetylated peptide TNK(ac)NK(ac)SSISR (SEQ ID NO: 13),"CREBBP [1595:1597], log 2 scale, drug vs DMSO",0.62
same,L/H ratio of acetylated peptide ALK(ac)DLYCHK (SEQ ID NO: 28),"CREM [240], log 2 scale, drug vs DMSO",0.00
same,L/H ratio of acetylated peptide LYCPK(ac)CMDVYTPK (SEQ ID NO: 29),"CSNK2B [139], log 2 scale, drug vs DMSO",0.00
same,light to heavy ratio (L/H ratio) of acetylated peptide NSFDCFK(ac)K (SEQ ID NO: 605),"Calcium-binding mitochondrial carrier protein Aralar2 [379], gene SLC25A13, inhibitor:DMSO",0.00 log 2
same,light to heavy ratio (L/H ratio) of acetylated peptide FVLSSGK(ac)FYGDEEKDK (SEQ ID NO: 281),"Calreticulin [55], CALR, drug:DMSO",0.00 log 2
same,light to heavy ratio (L/H ratio) of acetylated peptide NVLINK(ac)DIR (SEQ ID NO: 257),"Calreticulin [159], CALR, drug:DMSO",0.00 log 2
same,light to heavy ratio (L/H ratio) of acetylated peptide […](ac)GLLK (SEQ ID NO: 569),"Chloride intracellular channel protein 1 [131], gene CLIC1, inhibitor:DMSO",0.00 log 2
same,light to heavy ratio (L/H ratio) of acetylated peptide SMSTEGLMK(ac)FVDSK (SEQ ID NO: 330),"Citrate synthase mitochondrial [459], CS, drug:DMSO",0.76 log 2
same,"light to heavy ratio (L/H ratio), log 2 scale, acetylated peptide MIYASSK(ac)DAIKK (SEQ ID NO: 763)","Cofilin-1 [121], gene CFL1, drug:DMSO",0.00
same,light to heavy ratio (L/H ratio) of acetylated peptide AAEEVEAK(ac)FK (SEQ ID NO: 328),"Coiled-coil-helix-coiled-coil-helix domain-containing protein 3 mitochondrial [173], CHCHD3, drug:DMSO",−0.42 log 2
same,light to heavy ratio (L/H ratio) of acetylated peptide ASEIGEK(ac)YR (SEQ ID NO: 586),"Conserved hypothetical protein [484], gene KIAA0947, inhibitor:DMSO",0.00 log 2
same,light to heavy ratio (L/H ratio) of acetylated peptide DHCVAHK(ac)LFNNLK (SEQ ID NO: 608),"Cytochrome b-c1 complex subunit 6 mitochondrial [85], gene UQCRH, inhibitor:DMSO",0.00 log 2
same,light to heavy ratio (L/H ratio) of acetylated peptide YFDEK(ac)IAK (SEQ ID NO: 563),"D-beta-hydroxybutyrate dehydrogenase mitochondrial [280], gene BDH1, inhibitor:DMSO",0.00 log 2
same,L/H ratio of acetylated peptide FK(ac)[…] (SEQ ID NO: 30),"DAZAP1 [59], log 2 scale, drug vs DMSO",0.00
same,L/H ratio of acetylated peptide APTIVGK(ac)SSLNPILFR (SEQ ID NO: 31),"DDOST [189], log 2 scale, drug vs DMSO",0.00
same,L/H ratio of acetylated peptide DWVLNEFK(ac)HGK (SEQ ID NO: 33),"DDX5 [388], log 2 scale, drug vs DMSO",0.00

# — US20140357512A1, “HISTONE DEACETYLASE (HDAC) BIOMARKERS IN MULTIPLE MYELOMA” (priority 2013, published 2014)
